Test results reported in patent publication US20250362302A1, “INTRACELLULAR LIGATION OF PHOTOCATALYSTS FOR PHOTO-RESPONSIVE, PROBE-MEDIATED PROTEIN LABELING” (Seed Therapeutics US, Inc., priority 2022, published 2025).

Key:
[1] = test system: Halotag-KRAS(G12D); experiment: Halotag chaser assay (TAMRA-Cl) for Ir-photocatalyst cell permeability, fluorescent Western blot; format: cell-based, human
Procedure: Photo-responsive labeling within cells was carried out as described similar to the procedure as described in Example 11. An Ir-photocatalyst master stock solution was prepared at 10 mM or 5 mM in 100% DMSO. KRAS (G12DHaloTag®/+) cells (HD-103-021, Horizon Discovery) were grown to 90% confluency in 6-well cell culture dishes using phenol-free RPMI1640 media (Gibco™). […] The cells were incubated for 1 or 2 hours at 37° C. The media was then aspirated and cells were gently washed twice with 2 mL fresh RPMI 1640, with an incubation of 10 minutes per wash at 37° C. TAMRA-Cl fluorescent dye (Promega, 68251) was diluted with OptiMEM to a 5 μM working solution. 0.8 mL of the working dye solution was added to the cells, and allowed to incubate for 15 minutes at 37° C. The cells were gently washed twice with 2 mL cold DPBS, aspirated, then added 200 μL RIPA supplemented with protease-phosphatase inhibitor (Halt™ Protease and Phosphatase Inhibitor Cocktail (100×)) and mixed briefly. The cell lysate was collected into 1.5 mL tubes. The cell lysate was sonicated using a probe-sonicator (SONICS vibra-cell Fisher Scientific) with 15 s on, 10 s off, at 30% amplitude for 3 cycles. The cell lysate was centrifuged at 18,000 g at 4° C. for 20 minutes. […] Cell lysates were processed and analyzed by fluorescent Western blot with anti-TAMRA and anti-β-Actin (for normalization) antibodies. […]

[2] = test system: PI3 Kinase P110α; experiment: Photo-responsive labeling within live cells, HALO-tag immunoprecipitation, Western blot with Anti-PI3k antibody; format: cell-based, human; settings: labeling agent 250 μM, photocatalyst 10 μM, irradiation 450 nm 10 minutes, cell line 021
Procedure: (§1) Initially, reagents were prepared. An Ir—Cl photocatalyst master stock solution was prepared at 10 mM in 100% DMSO. The specific Ir—Cl photocatalyst used in this example was the photocatalyst prepared in accordance with Example 2. To create a working solution for the Ir—Cl catalyst, a portion of the Ir—Cl catalyst master stock solution was diluted in 1×DPBS, such that the final Ir—Cl catalyst concentration was 10 μM and the DMSO concentration was 0.1%. A labeling agent master stock was also prepared, having a 25 mM concentration in 100% DMSO. The particular labeling agent used was the one prepared in accordance with Example 1. To create a working solution for the labeling agent, a portion of the labeling agent master stock solution was diluted in 1×DPBS, such that the final concentration of labeling agent was 250 μM and the DMSO concentration was 1%.
(§2) A human KRAS (G12DHaloTag®/+) cell line (HD-103-021, Horizon Discovery) with protein reporter was grown to 80-90% confluence. Cells were harvested and pelleted down by centrifuging at 1000 g, for 5 minutes at 4° C. (Eppendorf Centrifuge 5427 R). Supernatant was discarded and the cell pellet was resuspended in ice cold 1×DPBS (Gibco™) and mixed. Subsequently, cells were again pelleted down by centrifuging at 1000 g, for 5 minutes at 4° C. Supernatant was discarded and fresh ice cold 1×DPBS was added to the pellet and mixed. […]

[3] = test system: SOS1; experiment: Photo-responsive labeling within live cells, streptavidin bead immunoprecipitation of biotinylated proteins, Western blot with anti-SOS1 antibody; format: cell-based, human; settings: KRAS (G12DHaloTag/+) protein reporter cells with photocatalyst, labeling partner and irradiation; no distinct band in control cells HD-103-037 and HD-PAR-006
Procedure: as §1, §2

[4] = test system: ikaros (IKZF1); experiment: Western blot of IKZF1 in lysates of HALO.CRBN Jurkat cells exposed to pomalidomide or lenalidomide; format: cell-based; settings: lanes, HALO.CRBN Jurkat cell lysates, compared with control or 1 μM pomalidomide lanes
From the text: A stable cell line, using Jurkat cells, was created where native cereblon (CRBN) was knocked out and a fusion of HaloTag protein and CRBN was expressed (referred to herein as “the HALO.CRBN Jurkat cell line”). […] The gel was stained using mouse anti-IKZF1 antibody. The dilution was 1:1000 and the exposure was about 10 seconds.

[5] = test system: bovine serum albumin (BSA); experiment: Catalyst-dependent biotinylation of bovine serum albumin, fluorescent Western blot with anti-biotin antibody; format: biochemical; settings: labeling reagent WH8 100 uM, BSA 10 uM, catalyst 5 μM and 10 μM, 5 minutes irradiation at 450 nm; no band without irradiation
Procedure: Photocatalyst was combined with diazirine labeling compounds 8 or 9 and BSA in DPBS to yield reaction mixtures with 200 uL total solution volume. BSA concentration was 10 uM; diazirine labeling compound was fixed as 100 uM; the final catalyst concentration was set as 5 uM and 10 uM respectively. These samples were then either placed in the dark or irradiated with visible (450 nm) light in a M2 photoreactor for 5 minutes at 100% intensity. 60 uL samples were then removed, combined with 20 μL of 4× reducing SDS-Laemmli buffer (with 1:10 1 M DTT), mixed and heated at 95° C. for 5 minutes. 15 μL of each sample was then analyzed by Fluorescent western blot.
The sample was loaded into a 4-20% Tris-Glycine gel (Bio-Rad). Gel was run at 120V for 80 minutes or until the dye front reaches the end of the gel. Proteins were transferred from gel to nitrocellulose membrane using the iBlot 2 semi-dry Transfer apparatus. The membrane was used to detect total protein for normalization which follow the manufacturer's manual (Revert™ 700 Total Protein Stain, LI-COR). After that, the membrane rinsed once with TBST and blocked with h Intercept® Blocking Buffer for 1 hour at RT with gentle shaking. After blocking, membrane was washed with TBST and requisite antibody was added (1:1000) and kept for overnight at 4° C. on a shaker. […]

| Compound | binding to the Halotag (Halo-chaser assay, anti-TAMRA) ([1]; FIG. 21A, 1 hour treatment, 5 μM and 10 μM photocatalyst, KRAS (G12DHaloTag/+) cells, compared to DMSO control) | binding to the Halotag (Halo-chaser assay, anti-TAMRA) ([1]; FIG. 21B, 5 μM photocatalyst) | PI3 Kinase P110α band after HALO-tag IP (FIG. 4A) [2] | SOS1 band after streptavidin IP (FIG. 5F) [3] | IKZF1 level in Western blot (anti-IKZF1) [4] | biotinylation of BSA (anti-biotin fluorescent Western blot) [5] |
| --- | --- | --- | --- | --- | --- | --- |
| Cc1ccnc(-c2cc(CCC(=O)NCCOCCOCCOCCOCCCCCCCl)ccn2)c1.Fc1cc(F)c(-c2ccc(C(F)(F)F)cn2)[c]([Ir+][c]2cc(F)cc(F)c2-c2ccc(C(F)(F)F)cn2)c1 [IR1] | a little less binding to the Halo tag | majority binding | distinct band of PI3 Kinase P110α | distinct SOS1 band observed | – | – |
| Nc1cccc2c1C(=O)N(C1CCC(=O)NC1=O)C2=O (centres unmarked) [pomalidomide] | – | – | – | – | observably less IKZF1 | – |
| [N-]=[N+]=Nc1ccc(C(=O)NCCOCCOCCOCCNC(=O)CCCC[C@@H]2SC[C@@H]3NC(=O)N[C@@H]32)cc1 [WH8, 4-azido-N-(13-oxo-17-((3aS,4S,6aR)-2-oxohexahydro-1H-thieno[3,4-d]imidazol-4-yl)-3,6,9-trioxa-12-azaheptadecyl)benzamide] | – | – | distinct band of PI3 Kinase P110α | distinct SOS1 band observed | – | biotinylated BSA bands |
